From ChEMBL document CHEMBL6115011, “Optimizing biofilm inhibitors: Balancing activity and toxicity in 2N-aminated 5-aryl-2-aminoimidazoles” (Bioorg Med Chem, 2025)

Assays:
[1] = test system: Staphylococcus aureus; test: Antibacterial activity against Staphylococcus aureus SH1000 at 25 degree C measured after 48 hrs by crystal violet staining based microplate reader analysis; assay type: functional, organism-based; details: SH1000, 48 h
[2] = test system: Escherichia coli; test: Inhibition of biofilm formation in Escherichia coli TG1 at 25 degree C measured after 24 hrs by crystal violet staining based microplate reader analysis; assay type: functional, organism-based; details: TG1, 24 h
[3] = test system: Pseudomonas aeruginosa; test: Inhibition of biofilm formation in Pseudomonas aeruginosa PA14 at 25 degree C measured after 24 hrs by crystal violet staining based analysis; assay type: functional, organism-based; details: PA14, 24 h
[4] = test system: Pseudomonas aeruginosa; test: Antibacterial activity against Pseudomonas aeruginosa PA14 at 25 degree C measured after 24 hrs by crystal violet staining based microplate reader analysis; assay type: functional, organism-based; details: PA14, 24 h
[5] = test system: Escherichia coli; test: Antibacterial activity against Escherichia coli TG1 at 25 degree C measured after 24 hrs by crystal violet staining based microplate reader analysis; assay type: functional, organism-based; details: TG1, 24 h
[6] = test system: Staphylococcus aureus; test: Inhibition of biofilm formation in Staphylococcus aureus SH1000 at 25 degree C measured after 48 hrs by crystal violet staining based analysis; assay type: functional, organism-based; details: SH1000, 48 h
[7] = test system: Staphylococcus aureus; test: Inhibition of biofilm formation in methicillin-resistant Staphylococcus aureus at 25 degree C measured after 48 hrs by crystal violet staining based analysis; assay type: functional, organism-based
[8] = test system: Staphylococcus epidermidis; test: Inhibition of biofilm formation in Staphylococcus epidermidis at 25 degree C measured after 48 hrs by crystal violet staining based analysis; assay type: functional, organism-based
[9] = Genotoxicity in human CAPAN-1 cells at 100 to 400 uM measured after 3 hrs by Western blot analysis; assay type: toxicity, cell-based; details: capan-1, 3 h, dose 100-400 µM
[10] = test system: Staphylococcus aureus; test: Antibacterial activity against methicillin-resistant Staphylococcus aureus at 25 degree C measured after 48 hrs by crystal violet staining based microplate reader analysis; assay type: functional, organism-based
[11] = test system: Staphylococcus epidermidis; test: Antibacterial activity against Staphylococcus epidermidis at 25 degree C measured after 48 hrs by crystal violet staining based microplate reader analysis; assay type: functional, organism-based
[12] = Toxicity in Caenorhabditis elegans CB5612 assessed as increase in food depletion delay by wide field microscopy based analysis
[13] = Genotoxicity in human CAPAN-1 cells assessed as fold change at 400 uM measured after 3 hrs by Western blot analysis; assay type: toxicity, cell-based; details: capan-1, 3 h
[14] = Cytotoxicity against human PBMC cells assessed as survival rate at 400 uM measured after 72 hrs by trypan blue staining based assay relative to control; assay type: toxicity, cell-based; details: read-out: Survival
[15] = Toxicity in Caenorhabditis elegans CB5612 by wide field microscopy based analysis
[16] = test system: HL-60; test: Cytotoxicity against human HL-60 cells assessed as inhibition of cell growth measured after 72 hrs by CellTiter 96 Aqueous One Solution Cell Proliferation Assay; assay type: functional
[17] = test system: LN-229; test: Cytotoxicity against human LN-229 cells assessed as inhibition of cell growth measured after 72 hrs by CellTiter 96 Aqueous One Solution Cell Proliferation Assay; assay type: functional; details: Homo sapiens, LN-229, 72 h
[18] = test system: Z-138; test: Cytotoxicity against human Z138 cells assessed as inhibition of cell growth measured after 72 hrs by CellTiter 96 Aqueous One Solution Cell Proliferation Assay; assay type: functional
[19] = test system: HCT-116; test: Cytotoxicity against human HCT-116 cells assessed as inhibition of cell growth measured after 72 hrs by CellTiter 96 Aqueous One Solution Cell Proliferation Assay; assay type: functional
[20] = test system: CAPAN-1; test: Cytotoxicity against human CAPAN-1 cells assessed as inhibition of cell growth measured after 72 hrs by CellTiter 96 Aqueous One Solution Cell Proliferation Assay; assay type: functional
[21] = test system: K562; test: Cytotoxicity against human K562 cells assessed as inhibition of cell growth measured after 72 hrs by CellTiter 96 Aqueous One Solution Cell Proliferation Assay; assay type: functional; details: Homo sapiens, K562, 72 h
[22] = test system: NCI-H460; test: Cytotoxicity against human NCI-H460 cells assessed as inhibition of cell growth measured after 72 hrs by CellTiter 96 Aqueous One Solution Cell Proliferation Assay; assay type: functional
[23] = Genotoxicity in human CAPAN-1 cells assessed as fold change at 100 uM measured after 3 hrs by Western blot analysis; assay type: toxicity, cell-based; details: capan-1, 3 h
[24] = Cytotoxicity against human PBMC cells assessed as survival rate at 25 uM measured after 72 hrs by trypan blue staining based assay relative to control; assay type: toxicity, cell-based; details: read-out: Survival
[25] = Cytotoxicity against human PBMC cells assessed as survival rate at 100 uM measured after 72 hrs by trypan blue staining based assay relative to control; assay type: toxicity, cell-based; details: read-out: Survival
[26] = Cytotoxicity against human DND41 cells assessed as inhibition of cell growth measured after 72 hrs by CellTiter 96 Aqueous One Solution Cell Proliferation Assay; assay type: functional

| SMILES | IC50 [1] [µM] | IC50 [2] [µM] | IC50 [3] [µM] | IC50 [4] [µM] | IC50 [5] [µM] | IC50 [6] [µM] | IC50 [7] [µM] | IC50 [8] [µM] | IC50 [10] [µM] | IC50 [11] [µM] | fold change (FC) [13] | viability at 72 h, 400 µM [14] [%] | further results |
| --- | --- | --- | --- | --- | --- | --- | --- | --- | --- | --- | --- | --- | --- |
| NCCCCCCCCn1c(-c2ccccc2)cnc1NC1CCCC1 | 79.4 | 33.5 | 107 | 74.4 | 85.1 | 70.4 |  |  |  |  |  |  |  |
| NCCCCCNc1ncc(-c2ccccc2)[nH]1 | 224 | 38.3 | 16.5 | 61.2 | 80 | 91.7 | 154 | 25.6 | 503 |  |  |  | Activity [9]: Non-toxic |
| NCCCCCCCCCCCNc1ncc(-c2ccccc2)[nH]1 | 28.6 | 15.5 | 8.3 | 16.7 | 14.2 | 37.5 | 18.1 | 1.8 | 47.7 | 25 | 1.75 |  | Time [12]: 3 days |
| NCCCCCCCCn1c(-c2ccc(Br)cc2)cnc1NC1CCCC1 | 56.1 | 25.2 | 147 | 61.4 | 43.4 | 167 |  |  |  |  |  | 48 |  |
| NCCCCNc1ncc(-c2ccc(F)cc2)[nH]1 | 176 | 14.9 | 4.5 | 34.6 | 31.5 | 167 | 98.1 | 6.1 | 217 |  |  |  | Activity [15]: Toxic |
| NCCCCCCNc1ncc(-c2ccc(Cl)cc2)[nH]1 | 71.2 | 3.28 | 4.24 | 22.3 | 16.1 | 86.5 | 28.3 | 42.1 | 16.1 | 90.8 | 14.6 |  | CC50 [16]: 13.2 µM; CC50 [17]: 40 µM; CC50 ([18]; Homo sapiens, Z-138, 72 h): 11 µM; CC50 [19]: 40 µM; CC50 [20]: 40 µM; CC50 [21]: 36.2 µM; CC50 [22]: 40 µM |
| CCc1c2c(nc3ccc(O)cc13)-c1cc3c(c(=O)n1C2)COC(=O)[C@]3(O)CC [7-ETHYL-10-HYDROXYCAMPTOTHECIN] |  |  |  |  |  |  |  |  |  |  | 9 |  | fold change (FC) [23]: > 7 |
| NCCCCCCCCCCCCNc1ncc(-c2ccccc2)[nH]1 | 14 | 9.6 | 6.7 | 12.3 | 9.5 | 25.4 | 12.8 | 23.8 | 19.7 | 32 | 1.95 | 4.5 | viability at 72 h, 25 µM [24]: 6%; viability at 72 h, 100 µM [25]: < 50%; fold change (FC) [23]: 2.75; Time [12]: 3.5 days |
| NCCCCCCCCNc1ncc(-c2ccc(F)cc2)[nH]1 | 90.7 | 12.8 | 13.1 | 26.6 | 21.6 | 47.6 | 36.8 | 15.7 | 79.9 |  | 2.35 | 22.9 | viability at 72 h, 25 µM [24]: 56.4%; viability at 72 h, 100 µM [25]: 70%; Activity [15]: Toxic; CC50 [19]: 29.9 µM; CC50 [26]: 46.4 µM |
| CCCCCCCCn1c(-c2ccccc2)cnc1NC1CCCC1 | 8.35 | 6.55 | > 800 | 20.6 | 8.37 | 8.34 |  |  |  |  |  |  |  |
| NCCCCCCCCNc1ncc(-c2ccc(Cl)cc2)[nH]1 | 12.5 | 16.6 | 19.2 | 21 | 16.9 | 15.8 | 34.8 | 59.6 | 93.7 | 51.2 | 12.1 | 0.5 | viability at 72 h, 25 µM [24]: 79.6%; CC50 [16]: 20 µM; viability at 72 h, 100 µM [25]: 17.5%; CC50 ([18]; 72 h): 20 µM; CC50 ([18]; Homo sapiens, Z-138, 72 h): 21.6 µM; CC50 [26]: 20 µM; CC50 [21]: 20 µM |
